One assay has as its target T1, CypD (Homo sapiens, UniProt P30405).
T1 construct: endogenous in cells; host or cells: Huh7 cells
The assay is classed as cell-based. Particulars: Huh7 cells, 1 μM, 24 hours.

In the next assay the test system is HIV-1 (GFP). The assay can be described thus: Infection of U87 cells with HIV-1 (GFP), titration of inhibitors. The assay is classed as cell-based. The note with it: for IC50: Human immunodeficiency virus 1, U-87 MG; for Potency relative to CsA: U87 cells, HIV-1 (GFP). How it is done: FIG. 27: As explained in Example 3, this figure illustrates: in panel A, infection of U87 cells with HIV-1 (GFP), with a titration of inhibitors from 10 μm-0.04 μM (n=2±SEM), the vertical axis in each graph representing infectivity as a % of DMSO control; in panel B, Western blot of CypA in Huh7 cells 48 hrs after treatment with and without JW4-10.
Also used as a control in the experiments (see FIG. 27A) was SmBz ([Sarcosine-3(4-methylbenzoate)]-CsA). SmBz is disclosed in Malouitre et al. Biochem J. 2009 Dec. 14; 425(1):137-48. The anti HIV activity of SmBz is described in Rasaiyaah et al. Nature, 2013. 503(7476): p. 402-5.

The subject of another assay is IFN-β mRNA. Type of assay: cell-based, Homo sapiens. Particulars: HCV-replicating Huh7 cells, 5 μM, 48 h.
The target of the next assay is T2, CypB (Homo sapiens, UniProt P23284).
T2 construct: endogenous in cells; host or cells: Huh7 cells
T2 sequence (P23284 34-216): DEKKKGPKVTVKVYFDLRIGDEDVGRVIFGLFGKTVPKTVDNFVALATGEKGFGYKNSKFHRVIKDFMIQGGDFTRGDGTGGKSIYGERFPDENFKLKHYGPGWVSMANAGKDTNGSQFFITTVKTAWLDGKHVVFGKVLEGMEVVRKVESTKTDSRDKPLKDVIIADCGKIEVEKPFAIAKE
The assay is classed as cell-based. The note with it: Huh7 cells, 1 μM.

In a further assay the test system is IRF1 target genes. Type of assay: cell-based, Homo sapiens. Particulars: HCV-replicating Huh7 cells, 5 μM, 48 hpe.
The subject of assay [1] is HCV replication organelle (DMVs). The assay is classed as cell-based, Homo sapiens. Particulars: 5×EC90, 24 hours post-transfection.
The next assay relates to HCV replication (SGR). The assay can be described thus: microbe, parasite or virus in culture. The assay is classed as cell-based. The note with it: Hepatitis C virus.
A further assay has as its system HCVcc (J6/JFH1-RLuc). The assay can be described thus: microbe, parasite or virus in culture. Type of assay: cell-based, Hepatitis C Virus. The note with it: for IC50: Hepatitis C virus; for Effect on HCVcc infection at single dose: 72 h.
The target in a further assay is T3, CypA (Homo sapiens, UniProt P62937).
T3 construct: endogenous in cells; host or cells: Huh7 and Huh7.5 cells
T3 sequence (P62937 whole entry): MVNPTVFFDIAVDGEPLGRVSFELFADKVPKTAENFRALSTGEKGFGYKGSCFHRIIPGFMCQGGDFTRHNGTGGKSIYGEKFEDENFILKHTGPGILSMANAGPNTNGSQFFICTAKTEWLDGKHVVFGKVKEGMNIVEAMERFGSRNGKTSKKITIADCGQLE
The assay is classed as cell-based.

The mark [2] stands for this setting: Huh7.5, Huh7.5, read-out: IC50 Replication (SGR).
Setting [3] is: Huh7.5-CTRL, read-out: IC50 Replication (SGR).
Setting [4] is: Huh-7, Huh7, read-out: IC50 Replication (SGR).
Setting [5] is: Huh-7, Huh7 MAVS KO, read-out: IC50 Replication (SGR).
[6] abbreviates: Huh-7, Huh7 NT c7, read-out: IC50 Replication (SGR).
The mark [7] stands for this setting: Huh-7, read-out: IC50 Replication (SGR), Huh7 MAVS KO + C508R.
Where [8] appears, read: Huh7.5, read-out: IC50 HCVcc infection, Huh7.5.
[9] abbreviates: Huh-7, read-out: IC50 HCVcc infection, Huh7 NT c7.

Structures are written as SMILES. Read-outs that look alike come from different tables or passages of the source.

Consider 4 molecules from patent US20230159593A1, “CY[…]” (priority 2020, published 2023).

T1 sequence (P30405 30-207): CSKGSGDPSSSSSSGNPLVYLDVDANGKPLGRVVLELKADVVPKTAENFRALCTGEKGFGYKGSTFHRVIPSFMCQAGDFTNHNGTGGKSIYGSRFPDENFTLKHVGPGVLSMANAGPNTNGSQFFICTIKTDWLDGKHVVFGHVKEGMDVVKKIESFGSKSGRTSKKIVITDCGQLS

`CC[C@@H]1NC(=O)[C@H]([C@H](O)[C@H](C)C/C=C/CCCCC(=O)N[C@H](C(=O)N2C[C@H](O)C[C@H]2C(=O)N[C@@H](C)c2ccc(-c3scnc3C)cc2)C(C)(C)C)N(C)C(=O)[C@H](C(C)C)N(C)C(=O)[C@H](CC(C)C)N(C)C(=O)[C@H](CC(C)C)N(C)C(=O)[C@@H](C)NC(=O)[C@H](C)NC(=O)[C@H](CC(C)C)N(C)C(=O)[C@H](C(C)C)NC(=O)[C@H](CC(C)C)N(C)C(=O)CN(C)C1=O` [CsA-Prtc1, [Gly-(1S,2R,E)-10-amido (E3 ligase ligand)-1-hydroxy-2-methyloct-4-ene]^1 CsA]: the CypD protein expression entry at CypD is listed as “minimal impact”. Moreover, the concentration for half-maximal inhibition (IC50) – broadly, the concentration at which inhibition is half-maximal – in the assay on HIV-1 (GFP) was 90 ± 130 nM; in the assay on HCV replication (SGR) (setting [2]) it was 55 ± 7 nM; in the assay with HCV replication (SGR) (setting [3]) it was 70 ± 13 nM; in the assay on HCV replication (SGR) (setting [4]) it was 16 ± 2 nM; with HCV replication (SGR) (setting [5]), 10 ± 1 nM; with HCV replication (SGR) (setting [6]), 9 ± 1 nM. Also, the concentration for half-maximal inhibition (IC50) is 8 ± 1 nM in the assay with HCV replication (SGR) (setting [7]); 14 ± 3 nM in the assay on HCVcc (J6/JFH1-RLuc) (setting [8]); 3 ± 1 nM in the assay on HCVcc (J6/JFH1-RLuc) (Huh-7, read-out: IC50 HCVcc infection, Huh7); 12 ± 2 nM in the assay on HCVcc (J6/JFH1-RLuc) (setting [9]). In addition, in the assay on IFN-β mRNA, the “Induction of IFN-β expression” value is “not”. Further, the CypB protein expression entry on CypB (24 hours) was “minimal impact”; on CypB (48 hours), “CypB degradation was observed”. The “Induction of IRF1 target gene expression” value with IRF1 target genes is on record as “did not induce expression of IRF1 target genes”. Further, the “Number and size of DMVs” value in assay [1] is “significant reduction in the number and size of DMVs”. Besides, the “Effect on HCVcc infection at single dose” value in the assay with HCVcc (J6/JFH1-RLuc) (Huh7, 1 μM) is “completely inhibited HCVcc infection”; in the assay with HCVcc (J6/JFH1-RLuc) (Huh7.5, 1 μM), “completely inhibited HCVcc infection”. Moreover, at CypA (1 μM with or without MG132 (10 μM), 24 hours), the “Proteasome dependence of CypA degradation” value is “proteasome-dependent”. Further, the CypA degradation result is given as “degradation of CypA” at CypA (Huh7 and Huh7.5 cells, 1 μM, 48 h); “degradation of CypA” on CypA (Huh7 cells, 48 hrs after treatment (FIG. 27B)).

As for `CC[C@@H]1NC(=O)[C@H]([C@H](O)[C@H](C)C/C=C/CCCn2ccnc2)N(C)C(=O)[C@H](C(C)C)N(C)C(=O)[C@H](CC(C)C)N(C)C(=O)[C@H](CC(C)C)N(C)C(=O)[C@@H](C)NC(=O)[C@H](C)NC(=O)[C@H](CC(C)C)N(C)C(=O)[C@H](C(C)C)NC(=O)[C@H](CC(C)C)N(C)C(=O)CN(C)C1=O` [CsA-like, [Gly-(1S,2R,E)-8-(1H-imidazole-1-yl)-1-hydroxy-2-methyloct-4-ene]^1 CsA], the “Induction of IFN-β expression” value in the assay on IFN-β mRNA is “capable of inducing IFN-β expression”. Moreover, the half-maximal inhibitory concentration (IC50) in the assay with HCV replication (SGR) (setting [2]) was determined as 1370 ± 197 nM; in the assay on HCV replication (SGR) (setting [3]), 527 ± 154 nM; in the assay with HCV replication (SGR) (Huh7.5-Mda5, read-out: IC50 Replication (SGR)), 950 ± 247 nM; in the assay on HCV replication (SGR) (Huh7.5-RIG-I/Mda5, read-out: IC50 Replication (SGR)) it was 1230 ± 298 nM; with HCV replication (SGR) (Huh7.5-RIG-I, read-out: IC50 Replication (SGR)), 686 ± 181 nM; with HCV replication (SGR) (setting [4]) it was 266 ± 37 nM. Moreover, the IC50 is 1220 ± 224 nM in the assay with HCV replication (SGR) (Huh-7, Huh7 IRF1 KO c10, read-out: IC50 Replication (SGR)); 1590 ± 284 nM in the assay on HCV replication (SGR) (Huh-7, Huh7 IRF1 KO c11, read-out: IC50 Replication (SGR)); 160 ± 23 nM in the assay with HCV replication (SGR) (setting [5]); 184 ± 26 nM in the assay with HCV replication (SGR) (setting [6]); 971 ± 186 nM in the assay with HCV replication (SGR) (Huh-7, Huh7 PKR KO c1, read-out: IC50 Replication (SGR)); 1250 ± 327 nM in the assay on HCV replication (SGR) (Huh-7, Huh7 PKR KO c4, read-out: IC50 Replication (SGR)). Further, the IC50 in the assay on HCV replication (SGR) (setting [7]) came to 141 ± 28 nM; in the assay on HCVcc (J6/JFH1-RLuc) (setting [8]) it was 316 ± 83 nM; with HCVcc (J6/JFH1-RLuc) (setting [9]), 123 ± 23 nM; in the assay with HCVcc (J6/JFH1-RLuc) (Huh-7, read-out: IC50 HCVcc infection, Huh7 PKR KO c4), 433 ± 101 nM.

With `CC[C@@H]1NC(=O)[C@H]([C@H](O)[C@H](C)C/C=C/CCOCCOCCOCCN[C@H](C(=O)N2C[C@H](O)C[C@H]2C(=O)N[C@@H](C)c2ccc(-c3scnc3C)cc2)C(C)(C)C)N(C)C(=O)[C@H](C(C)C)N(C)C(=O)[C@H](CC(C)C)N(C)C(=O)[C@H](CC(C)C)N(C)C(=O)[C@@H](C)NC(=O)[C@H](C)NC(=O)[C@H](CC(C)C)N(C)C(=O)[C@H](C(C)C)NC(=O)[C@H](CC(C)C)N(C)C(=O)CN(C)C1=O` [JW4-20], in the assay on HIV-1 (GFP), 120 ± 50 nM corresponded to half-maximal inhibition (IC50) and the “Potency relative to CsA” value is on record as “increased potency”.

On to `CC[C@@H]1NC(=O)[C@H]([C@H](O)[C@H](C)C/C=C/CCCN2CCN(CC(=O)N[C@H](C(=O)N3C[C@H](O)C[C@H]3C(=O)N[C@@H](C)c3ccc(-c4scnc4C)cc3)C(C)(C)C)CC2)N(C)C(=O)[C@H](C(C)C)N(C)C(=O)[C@H](CC(C)C)N(C)C(=O)[C@H](CC(C)C)N(C)C(=O)[C@@H](C)NC(=O)[C@H](C)NC(=O)[C@H](CC(C)C)N(C)C(=O)[C@H](C(C)C)NC(=O)[C@H](CC(C)C)N(C)C(=O)CN(C)C1=O` [JW4-21], for which, in the assay on HIV-1 (GFP), the concentration for half-maximal inhibition (IC50) turned out to be 700 ± 80 nM and the “Potency relative to CsA” value was “decreased potency”.
